Each structure is given as a SMILES string.

15 compounds from patent US6855843B2, “Inhibitors of α4 mediated cell adhesion” (Tanabe Seiyaku Co., Ltd., priority 1998, dated 2005) can be followed below.

Data set [1] deals with T1, α4β7 (adhesion of RPMI cells to CS-1) (Homo sapiens, UniProt P13612+P26010).
T1 construct: endogenous in cells
T1 sequence (P13612 34-1032): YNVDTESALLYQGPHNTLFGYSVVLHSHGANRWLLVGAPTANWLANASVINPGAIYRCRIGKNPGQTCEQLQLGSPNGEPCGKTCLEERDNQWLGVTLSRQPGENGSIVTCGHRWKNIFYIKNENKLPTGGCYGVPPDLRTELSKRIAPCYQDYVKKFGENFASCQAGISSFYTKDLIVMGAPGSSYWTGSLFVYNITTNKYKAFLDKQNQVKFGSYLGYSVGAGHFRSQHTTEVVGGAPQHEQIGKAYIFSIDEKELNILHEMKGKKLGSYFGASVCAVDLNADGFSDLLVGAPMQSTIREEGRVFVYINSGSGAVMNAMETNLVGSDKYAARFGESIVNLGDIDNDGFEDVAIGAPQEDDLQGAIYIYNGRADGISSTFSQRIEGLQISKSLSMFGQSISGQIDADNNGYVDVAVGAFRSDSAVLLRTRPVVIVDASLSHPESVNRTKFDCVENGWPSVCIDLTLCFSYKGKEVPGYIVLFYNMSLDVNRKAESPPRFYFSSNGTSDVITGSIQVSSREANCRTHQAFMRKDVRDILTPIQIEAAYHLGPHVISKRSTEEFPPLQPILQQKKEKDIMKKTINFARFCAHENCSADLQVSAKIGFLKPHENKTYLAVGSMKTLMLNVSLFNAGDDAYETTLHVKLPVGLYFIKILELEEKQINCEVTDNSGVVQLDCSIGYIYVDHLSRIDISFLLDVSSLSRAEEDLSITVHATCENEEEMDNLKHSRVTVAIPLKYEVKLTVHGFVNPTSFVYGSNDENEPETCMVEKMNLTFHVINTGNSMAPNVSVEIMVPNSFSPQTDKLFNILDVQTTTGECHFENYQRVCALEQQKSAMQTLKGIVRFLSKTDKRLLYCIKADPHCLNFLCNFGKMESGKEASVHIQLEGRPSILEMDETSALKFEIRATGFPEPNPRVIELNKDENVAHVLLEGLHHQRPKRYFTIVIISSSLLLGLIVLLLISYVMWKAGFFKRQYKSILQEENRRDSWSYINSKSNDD
T1 sequence (P26010 20-798): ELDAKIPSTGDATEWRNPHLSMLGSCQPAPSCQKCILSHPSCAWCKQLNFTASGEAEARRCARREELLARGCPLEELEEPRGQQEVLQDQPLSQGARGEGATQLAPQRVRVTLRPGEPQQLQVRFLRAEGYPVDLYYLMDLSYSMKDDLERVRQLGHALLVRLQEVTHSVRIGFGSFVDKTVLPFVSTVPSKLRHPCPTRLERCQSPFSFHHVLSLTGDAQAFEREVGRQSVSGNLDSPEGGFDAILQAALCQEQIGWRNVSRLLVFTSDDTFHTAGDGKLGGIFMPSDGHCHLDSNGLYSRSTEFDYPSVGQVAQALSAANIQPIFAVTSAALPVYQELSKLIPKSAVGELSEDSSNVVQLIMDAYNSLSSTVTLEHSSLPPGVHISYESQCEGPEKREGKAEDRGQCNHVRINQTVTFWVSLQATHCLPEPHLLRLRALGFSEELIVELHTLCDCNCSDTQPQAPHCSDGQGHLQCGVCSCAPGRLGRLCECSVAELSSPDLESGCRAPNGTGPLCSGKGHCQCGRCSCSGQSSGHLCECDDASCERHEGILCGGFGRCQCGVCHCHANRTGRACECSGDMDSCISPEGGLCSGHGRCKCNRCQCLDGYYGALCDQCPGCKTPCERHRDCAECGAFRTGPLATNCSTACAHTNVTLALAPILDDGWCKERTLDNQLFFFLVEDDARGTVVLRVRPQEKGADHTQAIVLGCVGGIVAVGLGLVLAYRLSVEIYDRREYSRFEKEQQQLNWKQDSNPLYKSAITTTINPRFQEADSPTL
Put plainly: RPMI-CS-1 cell adhesion assay. The class given is cell-based. Conditions: adhesion of RPMI B-cell line (expresses α4β7) to CS-1 peptide coated microwells; read-out: RPMI-CS-1 IC50 value range.

One may read the IC50 as the concentration at which inhibition is half-maximal. As a reminder, the melting point is the temperature, or range, at which the solid turns liquid. `CNC(=O)c1cc(OC)c(-c2ccc(C[C@H](NC(=O)c3c(Cl)cccc3Cl)C(=O)O)cc2)c(OC)c1` [Example 165, N-(2,6-Dichlorobenzoyl)-4-(4-methylcarbamoyl-2,6-dimethoxyphenyl)-L-phenylalanine]: the melting point is 251 to 252 °C. Besides, the half-maximal inhibitory concentration (IC50) in data set [1] was under 300 nM.
For `CCC(=O)c1cc(C[C@H](NC(=O)c2c(Cl)cccc2Cl)C(=O)O)ccc1-c1ccccc1OC` [Example 337], the melting point was 118 to 119 °C. For the same compound, the IC50 in data set [1] was under 300 nM.
The compound `CCCCC(O)c1cc(C[C@H](NC(=O)c2c(Cl)cccc2Cl)C(=O)O)ccc1-c1ccccc1OC` (stereo partly drawn) [Example 342] came in with a melting point of 158 to 159 °C. Besides, the IC50 in data set [1] was under 300 nM.
For the compound `COc1cc(C)cc(OC)c1-c1ccc(C[C@H](NC(=O)c2c(Cl)cccc2Cl)C(=O)O)cc1` [Example 148], the melting point was 233 to 234 °C. Also, in data set [1], the half-maximal inhibitory concentration (IC50) was under 300 nM.
The matching figures for `COc1cccc(OC)c1-c1ccc(C[C@H](NC(=O)c2c(Cl)ccc(-c3c(C)noc3C)c2Cl)C(=O)O)cc1` [Example 305, N-[3-(3,5-Dimethyl-4-isoxazolyl)-2,6-dichlorobenzoyl]-4-(2,6-dimethoxyphenyl)-L-phenylalanine]: 144.8 °C and 300 to 1000 nM.
`CCCc1cc(OC)c(-c2ccc(C[C@H](NC(=O)c3c(Cl)cccc3Cl)C(=O)O)cc2)c(OC)c1` [Example 149]: the melting point was 238 to 239 °C (dec.). Besides, the IC50 in data set [1] is under 300 nM.
On the same counts, the results for `CCCCCCC(=O)c1cc(C[C@H](NC(=O)c2c(Cl)cccc2Cl)C(=O)O)ccc1-c1ccccc1OC` [Example 339] are 86 to 88 °C and under 300 nM.
As to `COc1ccc(OC)c(-c2ccc(C[C@H](NC(=O)c3c(Cl)cccc3Cl)C(=O)O)cc2C(C)O)c1OC` (stereo partly drawn) [Example 340], the melting point is 121 to 123 °C. Moreover, in data set [1], the IC50 was under 300 nM.
In turn, `CNC(=O)Nc1cc(OC)c(-c2ccc(C[C@H](NC(=O)c3c(Cl)cccc3Cl)C(=O)O)cc2)c(OC)c1` [Example 160, N-(2,6-Dichlorobenzoyl)-4-[4-(3-methylureido)-2,6-dimethoxyphenyl]-L-phenylalanine] yielded a melting point of 206 to 207 °C. In addition, in data set [1], the concentration for half-maximal inhibition (IC50) was under 300 nM.
In turn, `CC(=O)c1ccc(-c2ccc(C[C@H](NC(=O)c3c(Cl)cccc3Cl)C(=O)O)cc2)s1` [Example 215, N-(2,6-Dichlorobenzoyl)-4-(5-acetyl-2-thienyl)-L-phenylalanine] had a melting point of 194 to 195 °C. Moreover, the IC50 in data set [1] was in the range of 300 to 1000 nM.
In the case of `COc1ccccc1-c1cccc(CC(NC(=O)c2c(Cl)cccc2Cl)C(=O)O)c1` (racemic) [Example 6, N-(2,6-Dichlorobenzoyl)-3-[2-methoxyphenyl)-DL-phenylalanine], the melting point amounted to 104 °C. The IC50 in data set [1] was over 5000 nM.
The compound `CCNC(=S)Nc1ccc(C(=O)N[C@@H](Cc2ccc(-c3ccccc3OC)cc2)C(=O)O)c(Cl)c1` [Example 196] showed a melting point of 155 to 156 °C. Moreover, the concentration for half-maximal inhibition (IC50) in data set [1] was under 300 nM.
Turning to `CNCc1cc(OC)c(-c2ccc(C[C@H](NC(=O)c3c(Cl)cccc3Cl)C(=O)O)cc2)c(OC)c1` [Example 242, N-(2,6-Dichlorobenzoyl)-4-[2,6-dimethoxy-4-[(methylamino)methyl]phenyl]-L-phenylalanine], the melting point is 274 °C. Also, the IC50 in data set [1] is under 300 nM.
In the case of `COc1ccccc1-c1ccc(C[C@@H](NC(=O)c2c(Cl)cccc2Cl)C(=O)O)cc1` [Example 5, N-(2,6-Dichlorobenzoyl)-4-(2-methoxyphenyl)-D-phenylalanine], the melting point is 195 °C. For the same compound, the concentration for half-maximal inhibition (IC50) in data set [1] fell in the range of 1000 to 5000 nM.
Consider `CCOC(=O)Nc1cc(C[C@H](NC(=O)c2c(Cl)cccc2Cl)C(=O)O)ccc1-c1c(OC)cccc1OC` [Example 299], for which the melting point fell in the range of 216 to 217 °C. In data set [1], the half-inhibitory concentration (IC50) is under 300 nM.
